Laboratory results from patent US9955691B2, “Macrocyclic picolinamides as fungicides” (DOW AGROSCIENCES LLC, priority 2014, dated 2018).
Read-outs that look alike come from different tables or passages of the source.

Columns and labels:
Puccinia triticina = test: Fungicidal activity: Wheat Brown Rust (PUCCRT); assay type: in vivo; conditions: for pest or weed control at 121.5 g/ha: Low Volume (121.5 g/H); for pest or weed control at 100 µg/mL: High Volume (100 ppm)
Method: (§1) Technical grades of materials were dissolved in acetone, which were then mixed with nine volumes of water containing 110 ppm Triton X-100. The fungicide solutions were applied onto wheat seedlings using an automated booth sprayer to run-off. All sprayed plants were allowed to air dry prior to further handling. All fungicides were evaluated using the aforementioned method for their activity vs. all target diseases, unless stated otherwise. Wheat leaf blotch and brown rust activity were also evaluated using track spray applications, in which case the fungicides were formulated as EC formulations, containing 0.1% Trycol 5941 in the spray solutions. Wheat plants (variety Yuma) were grown from seed in a greenhouse in 50% mineral soil/50% soil-less Metro mix until the first leaf was fully emerged, with 7-10 seedlings per pot. These plants were inoculated with an aqueous spore suspension of Septoria tritici either prior to or after fungicide treatments. After inoculation the plants were kept in 100% relative humidity (one day in a dark dew chamber followed by two to three days in a lighted dew chamber at 20° C.) to permit spores to germinate and infect the leaf. The plants were then transferred to a greenhouse set at 20° C. for disease to develop. When disease symptoms were fully expressed on the 1st leaves of untreated plants, infection levels were assessed on a scale of 0 to 100 percent disease severity. Percent disease control was calculated using the ratio of disease severity on treated plants relative to untreated plants. Evaluation of Fungicidal Activity: Wheat Brown Rust (Puccinia triticina; Synonym: Puccinia recondite f. Sp. Tritici; Bayer Code PUCCRT) Wheat plants (variety Yuma) were grown from seed in a greenhouse in 50% mineral soil/50% soil-less Metro mix until the first leaf was fully emerged, with 7-10 seedlings per pot. These plants were inoculated with an aqueous spore suspension of Puccinia triticina either prior to or after fungicide treatments. After inoculation the plants were kept in a dark dew room at 22° C. with 100% relative humidity overnight to permit spores to germinate and infect the leaf. The plants were then transferred to a greenhouse set at 24° C. for disease to develop. Fungicide formulation, application and disease assessment followed the procedures as described in the Example A.

[1] = tested on: Mycosphaerella graminicola; Anamorph: Septoria tritici; test: Fungicidal activity: Leaf Blotch of Wheat (SEPTTR); assay type: in vivo; conditions: Zymoseptoria tritici, wheat leaf blotch; for pest or weed control at 121.5 g/ha: Low Volume (121.5 g/H); for pest or weed control at 100 µg/mL: High Volume (100 ppm)
Method: as §1, with “Evaluation of Fungicidal Activity: Leaf Blotch of Wheat (Mycosphaerella graminicola; Anamorph: Septoria tritici; Bayer Code […]) Technical” for “Technical”, “plants.” for “plants. Evaluation of Fungicidal Activity: Wheat Brown Rust (Puccinia triticina; Synonym: Puccinia recondite f. Sp. Tritici; Bayer Code PUCCRT) Wheat plants (variety Yuma) were grown from seed in a greenhouse in 50% mineral soil/50% soil-less Metro mix until the first leaf was fully emerged, with 7-10 seedlings per pot. These plants were inoculated with an aqueous spore suspension of Puccinia triticina either prior to or after fungicide treatments. After inoculation the plants were kept in a dark dew room at 22° C. with 100% relative humidity overnight to permit spores to germinate and infect the leaf. The plants were then transferred to a greenhouse set at 24° C. for disease to develop. Fungicide formulation, application and disease assessment followed the procedures as described in the Example A.”

[2] = 24 h, 1 Day Protectant, read-out: PUCCRT 1 DP disease control
[3] = 72 h, 3 Day Curative, read-out: PUCCRT 3 DC disease control
[4] = 24 h, 1 Day Protectant, read-out: SEPTTR 1 DP disease control
[5] = 72 h, 3 Day Curative, read-out: SEPTTR 3 DC disease control

Compound | pest or weed control at 121.5 g/ha (Puccinia triticina; [2]) [%] | pest or weed control at 121.5 g/ha (Puccinia triticina; [3]) [%] | pest or weed control at 121.5 g/ha [1, 4] [%] | pest or weed control at 121.5 g/ha [1, 5] [%] | pest or weed control at 100 µg/mL (Puccinia triticina; [2]) [%] | pest or weed control at 100 µg/mL (Puccinia triticina; [3]) [%] | pest or weed control at 100 µg/mL [1, 4] [%] | pest or weed control at 100 µg/mL [1, 5] [%]
COc1ccnc(C(=O)N[C@H]2COC[C@H](CC3CCCC3)[C@@H](CC3CCCC3)[C@H](C)OC2=O)c1OCOC(C)=O [compound 26] | > 70 | > 70 | > 70 | > 70 |  |  |  | 
COc1ccnc(C(=O)N[C@H]2COC[C@H](Cc3ccccc3)[C@@H](c3ccccc3)[C@H](C)OC2=O)c1OCOC(C)=O [compound 53] | > 70 | > 70 | > 70 | > 70 |  |  |  | 
COc1ccnc(C(=O)N[C@H]2COC[C@H](CCCc3ccccc3)[C@@H](Cc3ccccc3)[C@H](C)OC2=O)c1OCOC(C)=O [compound 42] | > 70 | < 70 | > 70 | > 70 |  |  |  | 
COc1ccnc(C(=O)N[C@H]2COC[C@H](CCC(C)C)[C@@H](Cc3ccccc3)[C@H](C)OC2=O)c1OC(C)=O [compound 46] | > 70 | > 70 | > 70 | > 70 |  |  |  | 
COc1ccnc(C(=O)N[C@H]2COC[C@H](Cc3ccccc3)[C@@H](CC(C)C)[C@H](C)OC2=O)c1OCOC(C)=O [compound 19] | > 70 | > 70 | > 70 | > 70 |  |  |  | 
COc1ccnc(C(=O)N[C@H]2COC[C@H](Cc3ccccc3)[C@@H](CCC(C)C)[C@H](C)OC2=O)c1O [compound 148] |  |  |  |  | < 70 | < 70 | > 70 | > 70
COc1ccnc(C(=O)N[C@H]2COC[C@H](CCCc3ccccc3)[C@@H](Cc3ccccc3)[C@H](C)OC2=O)c1OC(C)=O [compound 41] | > 70 | > 70 | > 70 | > 70 |  |  |  | 
COc1ccnc(C(=O)N[C@H]2COC[C@@H]3CCCC[C@H]3[C@H](C)OC2=O)c1OCOC(C)=O [compound 6] |  |  |  |  | > 70 |  | < 70 | < 70
COc1ccnc(C(=O)N[C@H]2COC[C@H](CC3CC3)[C@@H](Cc3ccc(F)cc3)[C@H](C)OC2=O)c1O [compound 153] |  |  |  |  | > 70 | > 70 | > 70 | > 70
CCC[C@H]1COC[C@H](NC(=O)c2nccc(OC)c2O)C(=O)O[C@@H](C)[C@@H]1Cc1ccccc1 [compound 126] |  |  |  |  | > 70 | > 70 | > 70 | > 70
CCCC[C@@H]1[C@@H](Cc2ccccc2)COC[C@H](NC(=O)c2nccc(OC)c2O)C(=O)O[C@H]1C [compound 110] |  |  |  |  | < 70 | < 70 | > 70 | > 70
CCC[C@H]1COC[C@H](NC(=O)c2nccc(OC)c2OCOC(C)=O)C(=O)O[C@@H](C)[C@@H]1c1ccccc1 [compound 97] | > 70 | > 70 | > 70 | > 70 |  |  |  | 
COc1ccnc(C(=O)N[C@H]2COC[C@H](Cc3ccccc3)[C@@H](CCc3ccccc3)[C@H](C)OC2=O)c1OCOC(=O)C(C)C [compound 31] | > 70 | > 70 | > 70 | > 70 |  |  |  | 
CCC[C@H]1COC[C@H](NC(=O)c2nccc(OC)c2OCOC(=O)C(C)C)C(=O)O[C@@H](C)[C@@H]1Cc1ccccc1 [compound 24] | > 70 | > 70 | > 70 | > 70 |  |  |  | 
CCOCC(=O)OCOc1c(OC)ccnc1C(=O)N[C@H]1COC[C@H](CCC(C)C)[C@@H](Cc2ccccc2)[C@H](C)OC1=O [compound 45] | > 70 | > 70 | > 70 | > 70 |  |  |  | 
COc1ccnc(C(=O)N[C@H]2COC[C@H](Cc3ccccc3)[C@@H](CC(C)C)[C@H](C)OC2=O)c1O [compound 125] |  |  |  |  | > 70 | < 70 | < 70 | < 70
CCOCC(=O)OCOc1c(OC)ccnc1C(=O)N[C@H]1COC[C@H](Cc2ccccc2)[C@@H](CCC(C)C)[C@H](C)OC1=O [compound 83] | > 70 | > 70 | > 70 | > 70 |  |  |  | 
COc1ccnc(C(=O)N[C@H]2COC[C@H](CCC(C)C)[C@@H](CCc3ccccc3)[C@H](C)OC2=O)c1O [compound 129] |  |  |  |  | > 70 | > 70 | > 70 | > 70
COc1ccnc(C(=O)N[C@H]2COC[C@H](Cc3ccccc3)[C@@H](C3CCCC3)[C@H](C)OC2=O)c1OCOC(C)=O [compound 38] | > 70 | > 70 | > 70 | > 70 |  |  |  | 
COc1ccnc(C(=O)N[C@H]2COC[C@H](Cc3ccccc3)[C@@H](CCC(C)C)[C@H](C)OC2=O)c1OCOC(C)=O [compound 85] | > 70 | > 70 | > 70 | > 70 |  |  |  | 
CCC[C@H]1COC[C@H](NC(=O)c2nccc(OC)c2O)C(=O)O[C@@H](C)[C@@H]1c1ccccc1 [compound 152] |  |  |  |  | > 70 | > 70 | > 70 | > 70
COc1ccnc(C(=O)N[C@H]2COC[C@H](Cc3ccccc3)[C@@H](CCc3ccccc3)[C@H](C)OC2=O)c1OC(C)=O [compound 29] | > 70 | > 70 | > 70 | > 70 |  |  |  | 
COc1ccnc(C(=O)N[C@H]2COC[C@H](Cc3ccc(C(F)(F)F)cc3)[C@@H](Cc3ccccc3)[C@H](C)OC2=O)c1O [compound 136] |  |  |  |  | > 70 | > 70 | > 70 | < 70
CCC[C@H]1COC[C@H](NC(=O)c2nccc(OC)c2OCOC(=O)C(C)C)C(=O)O[C@@H](C)[C@@H]1CC(C)C [compound 65] | > 70 | > 70 | > 70 | > 70 |  |  |  | 
COc1ccnc(C(=O)N[C@H]2COC[C@H](CCC(C)C)[C@@H](Cc3ccccc3)[C@H](C)OC2=O)c1OCOC(C)=O [compound 44] | > 70 | < 70 | > 70 | > 70 |  |  |  | 
